{"source": "patent US20030050236A1", "about": "“Compounds that enhance tumor death” (The University of Chicago, priority 2000, published 2003)", "molecules": {"B1": {"name": "[14C]palmitoylated GAP43 peptide (MLCCMRR) (peptide)", "peptide": "MLCCMRR", "modifications": "also: [14C]palmitoyl thioester on one Cys, which not given here"}}, "key": {"[1]": {"system": "H-Ras- and N-Ras-encoded p21s", "conditions": "cited from earlier work"}, "[2]": {"conditions": "cited from earlier work; for fraction of dose excreted / recovered in the urine: unchanged, intact or active drug"}, "[3]": {"molecular_target": "T1, PPT1 (Homo sapiens, UniProt P50897)", "T1 sequence (P50897 28-306)": "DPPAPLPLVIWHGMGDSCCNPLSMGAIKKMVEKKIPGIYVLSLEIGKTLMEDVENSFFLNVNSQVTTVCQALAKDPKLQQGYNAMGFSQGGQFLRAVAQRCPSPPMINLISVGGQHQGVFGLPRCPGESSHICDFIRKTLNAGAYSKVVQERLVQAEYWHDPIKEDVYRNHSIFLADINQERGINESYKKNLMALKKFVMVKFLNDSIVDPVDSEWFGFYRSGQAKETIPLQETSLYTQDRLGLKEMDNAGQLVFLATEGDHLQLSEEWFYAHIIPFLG", "conditions": "cited from earlier work"}, "[4]": {"conditions": "cited from earlier work"}, "[5]": {"system": "LA-N-5 human neuroblastoma cells", "assay": "Cell viability / cell death by MTT assay", "type": "cell-based", "conditions": "LY-294002 30 μM, C2 ceramide 25 μM; 24 hrs", "quoted_text": "LA-N-5 human neuroblastoma cells were grown in DMEM supplemented with 10% fetal bovine serum and 1% gentamicin. […] Cell death was measured by the MTT method (Cho et al., 2000a; Cho et al., 2000b; Cho et al., 2000c)."}, "[6]": {"conditions": "multiple myeloma, oral administration; cited from earlier work"}, "[7]": {"molecular_target": "T1, PPT1", "assay": "In vitro PPT1 activity assay, [14C]palmitoyl peptide substrates, cell extract", "quoted_text": "Incubations were performed for 20 min at 37° C. and reactions terminated by addition of 1 ml of chloroform/methanol/2N HCl (2:1:0.06, v/v). After the centrifugation, organic phase was analyzed by HPTLC using n-butanol/pyridine/acetic acid/water (45:30:9:36, v/v) and [14C] palmitate release was quantified.\nThe peptide sequence, AcGCVKIKK (a palmitoylation site in K-Ras), was modified by substituting the SH group of cysteine with NH2 to generate diamino propionic acid, which was then acylated with palmitate (AcG-palmitoyl diamino propionate-VKIKK). […] In another set of experiments, the unmodified peptide itself (AcGCVKIKK) was used as a control to exclude the possibility of a nonspecific effect of the sequence on PPT activity.\nIn brief, the cell sonicate was incubated in the assay mixture containing 50 mM sodium citrate (pH 4.0) and IRY([^4C]palmitoylated)CWLRR octapeptide (2,000-4,000 cpm) for 20 min at 37° C. For the pH profile of PPT1 activity, 50 mM sodium citrate (pH 5 or 6) or 50 mM Tris-HCl (pH 7.4) was used with other conditions remaining the same. After addition of 1 ml of chloroform/methanol/2N HCl (2:1:0.06, by volume) and centrifugation, the organic phase was dried, reconstituted sample analyzed by HPTLC using n-butanol/pyridine/acetic acid/water (45:30:9:36, by volume) and the radioactive spot corresponding to [^14C] palmitate was counted.\nPPT1 activity was measured as described above. In brief, the cell sonicate was incubated in the assay mixture (50 mM sodium citrate (pH 4.0) for [^14C]palmitoylated [sequence] Po peptide substrate (3,000-4,000 cpm) or 50 mM Tris (pH 7.4) for [^14C]palmitoylated MLCCMRR GAP43 peptide substrate) for 20 min at 37° C. After organic extraction, samples were analyzed by HPTLC using n-butanol/pyridine/acetic acid/water (45:30:9:36, by volume) and the radioactive spot corresponding to [^14C] palmitate was counted."}, "[8]": {"system": "PPT1 overexpressing LA-N-5 cells", "assay": "Cell death by MTT assay in PPT1 overexpressing cells", "type": "cell-based, human", "conditions": "compared to LAN-5 cells", "protocol": "Cells were plated in 24-well culture plates containing 500 μl media. After drug treatment, 50 μl MTT (5 mg/ml in PBS) was added and incubated for 20 min at 37° C. An aliquot of 500 μl of 10% sodium dodecyl sulfate in 0.01 N HCl was added. After incubating overnight, the absorbance at 570 nm was determined by spectrophotometry. Cell viability was calculated as percent cell survival by dividing absorbance [treatment-blank] by absorbance [control-blank], where treatment is the reading for the treated cells, control is for vehicle-treated cells and blank is for MTT added to the media without cells.\nIn order to further verify that the increased susceptibility to drug-induced apoptosis of the AS-PPT1 treated cells was due to compromised PPT1 activity, the extent of cell death induced by C2-ceramide treatment in control was compared to DAP 1-treated cells. Treatment of cells with DAP1 alone induced 5-10% death of cells at DAP1 concentrations up to 100 μM for 6 h., as measured by MTT assay (FIG. 10A). […] In these cells, neither C2-ceramide, DAP1 alone or DAP1 (100 μM) followed by C2-ceramide (30 μM) for 6 h induced more than 10% cell death (FIG. 10B).\nLA-N-5 human neuroblastoma cells were grown in DMEM supplemented with 10% fetal bovine serum and 1% gentamicin. Clones of cells stably expressing PPT1 were selected and maintained by growing in media containing G418 (500 μg/ml) as described (Cho, et al., 2000b). Cell death was measured by the MTT method (Cho et al., 2000a; Cho et al., 2000b; Cho et al., 2000c)."}, "[9]": {"system": "HOG cells, human oligodendroglioma cells", "assay": "Killing of HOG cells, MTT assay", "type": "cell-based", "conditions": "24 hours", "protocol": "The relative potency of DAP1 compared to DAP1 ketoamide (DAP-KA) in killing cells was evaluated. HOG cells, human oligodendroglioma cells, were exposed for 24 hours to a) DAP1 or DAP-KA (FIG. 15A) or […] etoposide and either DAP 1 or DAP-KA (FIG. 15B). The concentration of etoposide was chosen to give 50% killing as measured by MTT assay."}, "[10]": {"molecular_target": "T2, palmitoyl protein thioesterase 1 (PPT1) (human, UniProt P50897 28-306)", "T2 sequence": "T1 sequence (P50897 28-306)", "assay": "cell-based or functional assay"}}, "note": "Counter-ions that a name gives are not always drawn. Like-named read-outs stand apart in the source and are kept apart here. *1 amine or outer side, *2 acyl side, *3 side chain or, on linkers, in order; H or OH if unused. Where a SMILES comes first, the peptide text is derived from it. Bridges are numbered along the chain shown (N, C = ends). Roman numbers before positions name the chains, in order. Where no end group is shown, it is not given here. [ ]: non-standard residue; d: D form. Actinocin(9to1) = Cc1c2oc3c(C)ccc(C(=O)[*:1])c3nc-2c(C(=O)[*:2])c(N)c1=O; NMeV = CN[C@H](C(=O)O)C(C)C; Dap = NC[C@H](N)C(=O)O; Sar = CNCC(=O)O"}
{"molecule": "C/C=C/C/C=C/CCC(=O)[C@H]1O[C@H]1C(N)=O", "note": "(relative stereo) [cerulenin, [2R, 3S]-2,3-epoxy-4-oxo-7,10-trans, trans-dodecadienamide]", "values": [{"measurement": "palmitoylation of Ras p21s", "setting": "[1]", "result": "able to inhibit the palmitoylation"}]}
{"molecule": "Cc1c2oc3c(C)ccc(C(=O)N[C@@H]4C(=O)N[C@H](C(C)C)C(=O)N5CCC[C@H]5C(=O)N(C)CC(=O)N(C)[C@@H](C(C)C)C(=O)O[C@@H]4C)c3nc-2c(C(=O)N[C@@H]2C(=O)N[C@H](C(C)C)C(=O)N3CCC[C@H]3C(=O)N(C)CC(=O)N(C)[C@@H](C(C)C)C(=O)O[C@@H]2C)c(N)c1=O", "note": "[Actinomycin D] (I: T[dV]P[Sar][NMeV] / II: T[dV]P[Sar][NMeV]; ester I:1-I:C, II:1-II:C; linker I:N-II:N via Actinocin(9to1))", "values": [{"measurement": "fraction of dose excreted / recovered in the urine", "setting": "[2]", "result": 10, "unit": "%"}]}
{"molecule": "CC[C@H](C)[C@H]1NC(=O)[C@@H](NC(=O)[C@@H](CC(C)C)N(C)C(=O)[C@@H]2CCCN2C(=O)C(C)O)[C@@H](C)OC(=O)[C@H](Cc2ccc(OC)cc2)N(C)C(=O)[C@@H]2CCCN2C(=O)[C@H](CC(C)C)NC(=O)[C@@H](C)C(=O)[C@H](C(C)C)OC(=O)C[C@@H]1O", "note": "(stereo partly shown) [Didemnin]", "values": [{"measurement": "mode of PPT1 inhibition", "setting": "[3]", "result": "non-competitively inhibit PPT1 activity"}]}
{"molecule": "COc1cccc2c1C(=O)c1c(O)c3c(c(O)c1C2=O)C[C@@](O)(C(=O)CO)C[C@@H]3O[C@H]1C[C@H](N)[C@H](O)[C@H](C)O1", "note": "[Doxorubicin, 5,12-Naphthacenedione, (8 s-cis)-10-[(3-amino-2,3,6-trideoxy-a-L-lyxo-hexopyranosyl)oxy]-7,8,9,1 0-tetrahydro-6,8,11-trihydroxy-8-(hydroxyacetyl)-1-methoxy-hydrochloride]", "values": [{"measurement": "probability of developing impaired myocardial function", "setting": "[4]; 400 mg/m^2", "result": "3 to 5", "unit": "%"}, {"measurement": "probability of developing impaired myocardial function", "setting": "[4]; 450 mg/m^2", "result": "5 to 8", "unit": "%"}, {"measurement": "probability of developing impaired myocardial function", "setting": "[4]; 500 mg/m^2", "result": "6 to 20", "unit": "%"}, {"measurement": "probability of developing impaired myocardial function", "setting": "[4]; total cumulative dose of 300 mg/m^2", "result": "1 to 2", "unit": "%"}]}
{"molecule": "O=c1cc(N2CCOCC2)oc2c(-c3ccccc3)cccc12", "note": "[LY-294002]", "values": [{"measurement": "cell death (MTT assay)", "setting": "[5]", "result": "about 50%"}]}
{"molecule": "O=NN(CCCl)C(=O)NC1CCCCC1", "note": "[Lomustine, 1-(2-chloro-ethyl)-3-cyclohexyl-1 nitrosourea]", "values": [{"measurement": "radioactivity excreted as degradation products within 24 hours", "setting": "[2]; oral, 30 mg/m^2 to 100 mg/m^2", "result": "about half"}]}
{"molecule": "N[C@@H](Cc1ccc(N(CCCl)CCCl)cc1)C(=O)O", "note": "[Melphalan, 4-[bis(2-chloroethyl)amino]-L-phenylalanine]", "values": [{"measurement": "patients showing a favorable response", "setting": "[6]", "result": "one third to one half"}]}
{"molecule": "CO[C@@]12[C@H](COC(N)=O)C3=C(C(=O)C(C)=C(N)C3=O)N1C[C@@H]1N[C@@H]12", "note": "[Mitomycin]", "values": [{"measurement": "fraction of dose excreted / recovered in the urine", "setting": "[2]", "result": "Approximately 10%"}]}
{"molecule": "O=S(=O)(F)Cc1ccccc1", "note": "[PMSF, phenylmethylsulfonyl fluoride]", "values": [{"measurement": "effect on PPT1 enzyme activity", "setting": "[7]; preincubation with 1 mM, control or PPT1 transfected cells", "result": "did not affect the enzyme activity"}]}
{"molecule": "CC[C@]1(O)C[C@@H]2CN(CCc3c([nH]c4ccccc34)[C@@](C(=O)OC)(c3cc4c(cc3OC)N(C)[C@H]3[C@@](O)(C(=O)OC)[C@H](OC(C)=O)[C@]5(CC)C=CCN6CC[C@]43[C@@H]65)C2)C1", "note": "[Vinblastine]", "values": [{"measurement": "fraction of dose excreted / recovered in the urine", "setting": "[2]", "result": "Approximately 15%"}]}
{"molecule": "COc1cccc2c1C(=O)c1c(O)c3c(c(O)c1C2=O)C[C@@](O)(C(C)=O)C[C@@H]3O[C@H]1C[C@H](N)[C@H](O)[C@H](C)O1", "note": "[daunorubicin, 5,12-Naphthacenedione, (8S-cis)-8-acetyl-10-[(3-amino-2,3 ,6-trideoxy-a-L-lyxo-hexanopyranosyl)oxy]-7,8 ,9,1 0-tetrahydro-6,8, 11-trihydroxy-10-methoxy-, hydrochloride]", "values": [{"measurement": "susceptibility of PPT1 overexpressing cells to killing", "setting": "[8]", "result": "markedly decreased susceptibility to killing"}]}
{"molecule": "COc1cc([C@@H]2c3cc4c(cc3[C@@H](O[C@@H]3O[C@@H]5CO[C@@H](C)O[C@H]5[C@H](O)[C@H]3O)[C@H]3COC(=O)[C@H]23)OCO4)cc(OC)c1O", "note": "[etoposide]", "values": [{"measurement": "susceptibility of PPT1 overexpressing cells to killing", "setting": "[8]", "result": "markedly decreased susceptibility to killing"}, {"measurement": "killing (MTT assay)", "setting": "[9]; 10 mM etoposide", "result": 50, "unit": "%"}]}
{"molecule": "CN[C@@H]1C[C@H]2O[C@@](C)([C@@H]1OC)n1c3ccccc3c3c4c(c5c6ccccc6n2c5c31)C(=O)NC4", "note": "[staurosporine]", "values": [{"measurement": "susceptibility of PPT1 overexpressing cells to killing", "setting": "[8]", "result": "markedly decreased susceptibility to killing"}]}
{"molecule": "AcG-Dap((+/−)α-hydroxyhexadecanoyl)-VKIKK.amide (Ac-G[Dap]VKIKK-NH2; not fully specified (residue 2); printed as AcG-Dap((+/−)α-hydroxyhexadecanoyl)-VKIKK.amide) [DAP-KA, ketoamide form of DAP1]", "values": [{"measurement": "potency as inhibitor relative to DAP1", "setting": "[7]", "result": "more potent inhibitor than DAP1"}, {"measurement": "potency as inducer of cell death relative to DAP1", "setting": "[9]; with etoposide", "result": "more potent inducer of cell death than DAP1"}]}
{"molecule": "AcG-palmitoyl diamino propionate-VKIKK (DAP1) (peptide)", "values": [{"measurement": "inhibition in an in vitro assay (PPT activity) (% inhibition at 20 µM)", "setting": "[10]", "result": 85}]}
{"molecule": "AcGCVKIKK (Ac-GCVKIKK-NH2)", "values": [{"measurement": "effect on PPT1 activity", "setting": "[7]; cell extract preincubated 15 min at 37° C., Po, rhodopsin, GAP-43, Gα peptide substrates", "result": "did not affect PPT activity"}]}
{"molecule": "B1", "values": [{"measurement": "depalmitoylation by extract of PPT1-overexpressing cells against vector-transfected cells", "setting": "[10]", "result": "~2.5", "unit": "fold"}]}
